The text below walks through data of patent US12121521B2, “Uses of salt-inducible kinase (SIK) inhibitors for treating osteoporosis” (The General Hospital Corporation, priority 2016, dated 2024).

Structures are written as SMILES.

For the assay, the system named is C57B/6 mice. The assay is described as follows: Acute YKL-05-093 administration: bone gene expression and sclerostin immunohistochemistry. Type of assay: in vivo, mouse. The settings on record: 2 hours. On the procedure: FIGS. 7A to 7I: Effects of YKL-05-093 administration on bone gene expression in vivo. (FIGS. 7A and 7B) 8 week old C57B/6 mice (n=4/group) were treated with the indicated dose of YKL-05-093 via intraperitoneal injection. 2 hours later, bone RNA was isolated and transcript abundance was measured by RT-qPCR. # indicates p<0.05 versus vehicle, and * indicates p<0.01 versus vehicle by Student's unpaired 2 tailed t-test. (FIG. 7C) Left: sclerostin immunohistochemistry was performed 2 hours after intraperitoneal injection with either vehicle or YKL-05-093 (20 μmol/kg). Right: quantification of sclerostin-positive cortical osteocytes, n=4 mice per treatment group, * indicated p<0.01 versus vehicle. (FIGS. 7D to 7I) Genes regulated by PTH and YKL-05-093 in vitro are also regulated by YKL-05-093 in vivo. Mice were treated with YKL-05-093 (20 μmol/kg) and bone RNA collected 2 hours later as in FIG. 7A. * indicates p<0.05 versus vehicle. In FIGS. 7A, 7B, and 7D to 7I, “umol” denotes μmol. In FIGS. 7D to 7I, each of the right bars corresponds to YKL-05-093.
All animals were housed in the Center for Comparative Medicine at the Massachusetts General Hospital, and all experiments were approved by the hospital's Subcommittee on Research Animal Care. HDAC5-null mice (70) and HDAC4 f/f mice (71) were generously provided by Dr. Eric Olson (University of Texas Southwestern Medical Center, Dallas, TX) and were backcrossed to C57B/6 mice for at least 6 generations. DMP1-Cre mice (27) were generously provided by Dr. Jian (Jerry) Feng (Texas A&M University, Baylor College of Dentistry, Dallas, TX). “DKO” HDAC4/5 mice were of the following genotype: HDAC4f/f; HDAC5−/−; DMP1-Cre. SIK2 f/f mice were as described (40), and were bred to DMP1-Cre animals to generate SIK2^OcyKO mice. ES cells carrying the targeted SOST allele Sost^tm1(KOMP)Vleg, in which the SOST coding sequence has been replaced by LacZ and floxed Neo cassette, were obtained from the Knockout Mouse Project (KOMP) Repository. Clone VG10069-BE8 was injected into blastocysts, and the resulting SOST+/− mice were crossed to HDAC5 mutant animals to generate compound heterozygous mice. In all instances, skeletal phenotypes were evaluated in 8 week-old sex-matched littermates. For acute effects of PTH on bone gene expression, animals were treated with PTH (1-34, 300 μg/kg, subcutaneous administration) and then sacrificed 90 minutes later. For acute effects of YKL-05-093 on bone gene expression, animals were treated with the indicated doses of compound (dissolved in PBS+25 mM HCl) or solvent via intraperitoneal injections, and sacrificed 2 hours later. […]

Turning to `COc1ccc(N2C(=O)N(c3c(C)cccc3C)Cc3cnc(Nc4ccc(C5CCN(C)CC5)c(OC)c4)nc32)c(OC)c1` [YKL-05-093], where the note is “20 μmol/kg”, the “bone expression of genes co-regulated by PTH and YKL-05-093 in vitro” value is “significant regulation of VDR, WNT4, NR4A2, NUAK1, PDGFA, and CD200 expression”; the “sclerostin protein levels by immunohistochemistry” value is recorded as “reductions in sclerostin protein levels”. For the same molecule, under “intraperitoneal”, the “RANKL in osteocyte-enriched bone RNA” value was “RANKL up-regulation” and the “SOST in osteocyte-enriched bone RNA” value is “dose-dependent SOST suppression”.
